Assay results taken from PubChem BioAssay (NCI).
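Compound exposure: 48 hours, 5 concentrations, 96-well plates. TGI denotes the concentration required for complete inhibition of growth.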

How the values were obtained:
Assay in all cases: NCI-60 cell line screen, 48 h
HCT-15 colon = system: HCT-15 colon
HT29 colon = system: HT29 colon
M14 melanoma = system: M14 melanoma
NCI-H226 lung = system: NCI-H226 lung
NCI-H23 lung = system: NCI-H23 lung
NCI-H460 lung = system: NCI-H460 lung
OVCAR-5 ovarian = system: OVCAR-5 ovarian
SF-268 CNS = system: SF-268 CNS
SF-295 CNS = system: SF-295 CNS
UACC-257 melanoma = system: UACC-257 melanoma

Row | Compound | TGI (HCT-15 colon) [µM] | TGI (HT29 colon) [µM] | TGI (M14 melanoma) [µM] | TGI (NCI-H226 lung) [µM] | TGI (NCI-H23 lung) [µM] | TGI (NCI-H460 lung) [µM] | TGI (OVCAR-5 ovarian) [µM] | TGI (SF-268 CNS) [µM] | TGI (SF-295 CNS) [µM] | TGI (UACC-257 melanoma) [µM]
1 | CCN(CC)C(=S)SS(=O)(=O)c1ccccc1[N+](=O)[O-] | > 100 | 50.4 | > 48.5 | > 93.8 | 99 | > 100 | > 100 | > 100 | > 100 | > 60.6
2 | CC(=O)N/C(=C\c1ccc(/C=C(\NC(C)=O)C2=NC3C(=O)c4ccccc4C(=O)C3N2)cc1)C1=NC2C(=O)c3ccccc3C(=O)C2N1 (stereo not given) | > 100 | > 100 | > 100 | > 100 | > 100 | > 100 | > 100 | > 100 | > 100 | > 100
3 | CC(NC(NC(C)C12CC3CC(CC(C3)C1)C2)=C(C(Cl)=C(Cl)Cl)[N+](=O)[O-])C12CC3CC(CC(C3)C1)C2 (stereo not given) | > 100 | 18.1 | 48.7 | > 61.7 | 34.3 | 21.8 | > 100 | > 59.5 | > 100 | > 54.6
4 | CCN(CC)CCNc1ccc(C)c2sc3ccccc3c(=O)c12 | 8.87 | 3.52 | 3.36 | 11.8 | 10.3 | 5.93 | 9.59 | 20.4 | 5.66 | 3.18
